In patent US20230085307A1, “PYRIDAZINONE COMPOUND AND HERBICIDE” (NISSAN CHEMICAL CORPORATION, priority 2019, published 2023):

Experiments:
blackgrass [1] = test: Test Example 4: herbicidal effect by soil treatment (Table 19, symbol J); assay type: in vivo, blackgrass (Alopecurus myosuroides); settings: amount of applied herbicide 320 g/ha
Outline: (§1)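 Three weeks of greenhouse growth at 25° C. to 30° C. followed a uniform surface spray of water-diluted emulsion at a predetermined herbicide amount. Seeds had been sown beforehand under about 1.5 cm of sterilized diluvial soil. Grading followed criteria set out in an earlier test.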

chickweed [2] = test: Test Example 4: herbicidal effect by soil treatment (Table 19, symbol P); assay type: in vivo, common chickweed (Stellaria media); settings: amount of applied herbicide 320 g/ha
Outline: as §1

barnyard grass [3] = test: Test Example 5: herbicidal effect by foliage application, plastic box (Table 20, symbol H); assay type: in vivo, barnyard grass (Echinochloa crus-galli); settings: foliage application, 320 g/ha, three weeks after application
Outline: (§2)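 Plants sown in sterilized diluvial soil and grown 14 days in a greenhouse at 25° C to 30° C, then sprayed on the foliage with the compound's emulsion diluted in water to a predetermined herbicide amount. Injury to weeds and crops scored three weeks after application on a visual rating scale.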

blackgrass [4] = test: Test Example 5: herbicidal effect by foliage application, plastic box (Table 20, symbol J); assay type: in vivo, blackgrass (Alopecurus myosuroides); settings: foliage application, 320 g/ha, three weeks after application
Outline: as §2

barnyard grass [5] = test: Test Example 4: herbicidal effect by soil treatment (Table 19, symbol H); assay type: in vivo, barnyard grass (Echinochloa crus-galli); settings: amount of applied herbicide 320 g/ha
Outline: as §1

Italian ryegrass [6] = test: Test Example 4: herbicidal effect by soil treatment (Table 19, symbol K); assay type: in vivo, Italian ryegrass (Lolium multiflorum); settings: amount of applied herbicide 320 g/ha
Outline: as §1

chickweed [7] = test: Test Example 5: herbicidal effect by foliage application, plastic box (Table 20, symbol P); assay type: in vivo, common chickweed (Stellaria media); settings: foliage application, 320 g/ha, three weeks after application
Outline: as §2

rice flat sedge = test: Test Example 3: herbicidal effect by foliage application, Wagner pot (Table 18, symbol E); assay type: in vivo, rice flat sedge (Cyperus iria); settings: amount of applied herbicide 320 g/ha
Outline: (§3)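 Plants were sown in alluvial soil held under 0.1–0.5 cm standing water and grown 14 days in a greenhouse at 25–30 °C. An emulsifiable formulation, water-diluted to the set dose, was then sprayed onto the foliage, and effects were scored three weeks later using previously defined criteria.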

wild oat [8] = test: Test Example 5: herbicidal effect by foliage application, plastic box (Table 20, symbol I); assay type: in vivo, wild oat (Avena fatua); settings: foliage application, 320 g/ha, three weeks after application
Outline: as §2

windgrass [9] = test: Test Example 5: herbicidal effect by foliage application, plastic box (Table 20, symbol L); assay type: in vivo, windgrass (Apera spica-venti); settings: foliage application, 320 g/ha, three weeks after application
Outline: as §2

southern crabgrass [10] = test: Test Example 4: herbicidal effect by soil treatment (Table 19, symbol F); assay type: in vivo, southern crabgrass (Digitaria ciliaris); settings: amount of applied herbicide 320 g/ha
Outline: as §1

persian speedwell [11] = test: Test Example 5: herbicidal effect by foliage application, plastic box (Table 20, symbol R); assay type: in vivo, Persian speedwell (Veronica persica); settings: foliage application, 320 g/ha, three weeks after application
Outline: as §2

redroot pigweed [12] = test: Test Example 5: herbicidal effect by foliage application, plastic box (Table 20, symbol N); assay type: in vivo, redroot pigweed (Amaranthus retroflexus); settings: foliage application, 320 g/ha, three weeks after application
Outline: as §2

barnyard grass [13] = test: Test Example 3: herbicidal effect by foliage application, Wagner pot (Table 18, symbol H); assay type: in vivo, barnyard grass (Echinochloa crus-galli); settings: amount of applied herbicide 320 g/ha
Outline: as §3

green foxtail [14] = test: Test Example 4: herbicidal effect by soil treatment (Table 19, symbol G); assay type: in vivo, green foxtail (Setaria viridis); settings: amount of applied herbicide 320 g/ha
Outline: as §1

persian speedwell [15] = test: Test Example 4: herbicidal effect by soil treatment (Table 19, symbol R); assay type: in vivo, Persian speedwell (Veronica persica); settings: amount of applied herbicide 320 g/ha
Outline: as §1

redroot pigweed [16] = test: Test Example 4: herbicidal effect by soil treatment (Table 19, symbol N); assay type: in vivo, redroot pigweed (Amaranthus retroflexus); settings: amount of applied herbicide 320 g/ha
Outline: as §1

lambsquarters [17] = test: Test Example 4: herbicidal effect by soil treatment (Table 19, symbol O); assay type: in vivo, lambsquarters (Chenopodium album); settings: amount of applied herbicide 320 g/ha
Outline: as §1

lambsquarters [18] = test: Test Example 5: herbicidal effect by foliage application, plastic box (Table 20, symbol O); assay type: in vivo, lambsquarters (Chenopodium album); settings: foliage application, 320 g/ha, three weeks after application
Outline: as §2

green foxtail [19] = test: Test Example 5: herbicidal effect by foliage application, plastic box (Table 20, symbol G); assay type: in vivo, green foxtail (Setaria viridis); settings: foliage application, 320 g/ha, three weeks after application
Outline: as §2

windgrass [20] = test: Test Example 4: herbicidal effect by soil treatment (Table 19, symbol L); assay type: in vivo, windgrass (Apera spica-venti); settings: amount of applied herbicide 320 g/ha
Outline: as §1

velvetleaf [21] = test: Test Example 4: herbicidal effect by soil treatment (Table 19, symbol M); assay type: in vivo, velvetleaf (Abutilon theophrasti); settings: amount of applied herbicide 320 g/ha
Outline: as §1

wild oat [22] = test: Test Example 4: herbicidal effect by soil treatment (Table 19, symbol I); assay type: in vivo, wild oat (Avena fatua); settings: amount of applied herbicide 320 g/ha
Outline: as §1

Italian ryegrass [23] = test: Test Example 5: herbicidal effect by foliage application, plastic box (Table 20, symbol K); assay type: in vivo, Italian ryegrass (Lolium multiflorum); settings: foliage application, 320 g/ha, three weeks after application
Outline: as §2

Chinese sprangletop = test: Test Example 3: herbicidal effect by foliage application, Wagner pot (Table 18, symbol D); assay type: in vivo, chinese sprangletop (Leptochloa chinensis); settings: amount of applied herbicide 320 g/ha
Outline: as §3

velvetleaf [24] = test: Test Example 5: herbicidal effect by foliage application, plastic box (Table 20, symbol M); assay type: in vivo, velvetleaf (Abutilon theophrasti); settings: foliage application, 320 g/ha, three weeks after application
Outline: as §2

southern crabgrass [25] = test: Test Example 5: herbicidal effect by foliage application, plastic box (Table 20, symbol F); assay type: in vivo, southern crabgrass (Digitaria ciliaris); settings: foliage application, 320 g/ha, three weeks after application
Outline: as §2

SMILES | H: barnyard grass, herbicidal effect grade (barnyard grass [3]) | J: blackgrass, herbicidal effect grade (blackgrass [4]) | P: chickweed, herbicidal effect grade (chickweed [7]) | herbicidal effect on E: rice flat sedge (rice flat sedge) | I: wild oat, herbicidal effect grade (wild oat [8]) | L: windgrass, herbicidal effect grade (windgrass [9]) | R: persian speedwell, herbicidal effect grade (persian speedwell [11]) | N: redroot pigweed, herbicidal effect grade (redroot pigweed [12]) | herbicidal effect on H: barnyard grass (barnyard grass [13]) | O: lambsquarters, herbicidal effect grade (lambsquarters [18]) | G: green foxtail, herbicidal effect grade (green foxtail [19]) | K: Italian ryegrass, herbicidal effect grade (Italian ryegrass [23]) | herbicidal effect on D: Chinese sprangletop (Chinese sprangletop) | M: velvetleaf, herbicidal effect grade (velvetleaf [24]) | F: southern crabgrass, herbicidal effect grade (southern crabgrass [25]) | other results
CCc1nn(C)c(=O)c(-c2c(-c3ccc(OC(F)(F)F)cc3)sc3ccc(F)cc23)c1O [2-412] | 4 (Herbicidal rate of 70% or more and less than 90%) | 0 (Herbicidal rate of 5% or less (almost no effect)) | 5 (Herbicidal rate of 90% or more (almost completely withered)) | 4 (Herbicidal rate of 70% or more and less than 90%) | 0 (Herbicidal rate of 5% or less (almost no effect)) | 1 (Herbicidal rate of 5% or more and less than 20%) | 5 (Herbicidal rate of 90% or more (almost completely withered)) | 5 (Herbicidal rate of 90% or more (almost completely withered)) | 4 (Herbicidal rate of 70% or more and less than 90%) | 5 (Herbicidal rate of 90% or more (almost completely withered)) | 4 (Herbicidal rate of 70% or more and less than 90%) | 3 (Herbicidal rate of 40% or more and less than 70%) | 0 (Herbicidal rate of 5% or less (almost no effect)) | 3 (Herbicidal rate of 40% or more and less than 70%) | 3 (Herbicidal rate of 40% or more and less than 70%) | herbicidal effect, J: blackgrass (blackgrass [1]): 0 (Herbicidal rate of 5% or less (almost no effect)); herbicidal effect, P: chickweed (chickweed [2]): 0 (Herbicidal rate of 5% or less (almost no effect)); herbicidal effect, H: barnyard grass (barnyard grass [5]): 0 (Herbicidal rate of 5% or less (almost no effect)); herbicidal effect, K: Italian ryegrass (Italian ryegrass [6]): 0 (Herbicidal rate of 5% or less (almost no effect)); herbicidal effect, F: southern crabgrass (southern crabgrass [10]): 0 (Herbicidal rate of 5% or less (almost no effect)); herbicidal effect, G: green foxtail (green foxtail [14]): 0 (Herbicidal rate of 5% or less (almost no effect)); herbicidal effect, R: persian speedwell (persian speedwell [15]): 3 (Herbicidal rate of 40% or more and less than 70%); herbicidal effect, N: redroot pigweed (redroot pigweed [16]): 2 (Herbicidal rate of 20% or more and less than 40%); herbicidal effect, O: lambsquarters (lambsquarters [17]): 1 (Herbicidal rate of 5% or more and less than 20%); herbicidal effect, L: windgrass (windgrass [20]): 0 (Herbicidal rate of 5% or less (almost no effect)); herbicidal effect, M: velvetleaf (velvetleaf [21]): 0 (Herbicidal rate of 5% or less (almost no effect)); herbicidal effect, I: wild oat (wild oat [22]): 0 (Herbicidal rate of 5% or less (almost no effect))
Cc1nn(C)c(=O)c(-c2c(-c3ccc(Cl)cc3)sc3cc(Cl)ccc23)c1O [3-033] | 4 (Herbicidal rate of 70% or more and less than 90%) | 4 (Herbicidal rate of 70% or more and less than 90%) | 5 (Herbicidal rate of 90% or more (almost completely withered)) | 5 (Herbicidal rate of 90% or more (almost completely withered)) | 4 (Herbicidal rate of 70% or more and less than 90%) | 4 (Herbicidal rate of 70% or more and less than 90%) | 5 (Herbicidal rate of 90% or more (almost completely withered)) | 5 (Herbicidal rate of 90% or more (almost completely withered)) | 4 (Herbicidal rate of 70% or more and less than 90%) | 4 (Herbicidal rate of 70% or more and less than 90%) | 5 (Herbicidal rate of 90% or more (almost completely withered)) | 4 (Herbicidal rate of 70% or more and less than 90%) | 3 (Herbicidal rate of 40% or more and less than 70%) | 4 (Herbicidal rate of 70% or more and less than 90%) | 3 (Herbicidal rate of 40% or more and less than 70%) | J: blackgrass, herbicidal effect grade (blackgrass [1]): 0 (Herbicidal rate of 5% or less (almost no effect)); P: chickweed, herbicidal effect grade (chickweed [2]): 2 (Herbicidal rate of 20% or more and less than 40%); H: barnyard grass, herbicidal effect grade (barnyard grass [5]): 0 (Herbicidal rate of 5% or less (almost no effect)); K: Italian ryegrass, herbicidal effect grade (Italian ryegrass [6]): 4 (Herbicidal rate of 70% or more and less than 90%); F: southern crabgrass, herbicidal effect grade (southern crabgrass [10]): 0 (Herbicidal rate of 5% or less (almost no effect)); G: green foxtail, herbicidal effect grade (green foxtail [14]): 0 (Herbicidal rate of 5% or less (almost no effect)); R: persian speedwell, herbicidal effect grade (persian speedwell [15]): 3 (Herbicidal rate of 40% or more and less than 70%); N: redroot pigweed, herbicidal effect grade (redroot pigweed [16]): 4 (Herbicidal rate of 70% or more and less than 90%); O: lambsquarters, herbicidal effect grade (lambsquarters [17]): 3 (Herbicidal rate of 40% or more and less than 70%); L: windgrass, herbicidal effect grade (windgrass [20]): 3 (Herbicidal rate of 40% or more and less than 70%); M: velvetleaf, herbicidal effect grade (velvetleaf [21]): 0 (Herbicidal rate of 5% or less (almost no effect)); I: wild oat, herbicidal effect grade (wild oat [22]): 0 (Herbicidal rate of 5% or less (almost no effect))
